The record followed here is PubChem BioAssay AID1013 (Columbia University Molecular Screening Center, 2008).

Assay [1] concerns TNFa-stimulated cells, VCAM1 expression imaging. In words: blockers of VCAM1 upregulation by TNFa – imaging, TNFa stimulus, retest and dose response, confirmation (AID 1013).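 For cell count: compound on cells 1 h before TNFa then 24 h more.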
Experiment in assay [2]: as above
Conditions: TNFa-stimulated cells, VCAM1 expression imaging; cell count; at 10 µM; stronger effect = lower value.

pIC50: −log10 of the molar value. Calls of active or inactive are those of the source. The rule behind the calls is not given here.

Regarding `COc1ccc(-c2cc3ccccc3oc2=O)cc1NC(=O)c1ccc([N+](=O)[O-])o1`, in assay [1], the IC50 – broadly, the concentration at which inhibition is half-maximal – was > 10 µM (inactive). For the same molecule, the cell count in assay [2] turned out to be 107%.
For `COc1cc(-c2nnc3n2N=C(c2ccccc2)CS3)cc(OC)c1OC`, in that order: > 10 µM (inactive) and 99.8%.
For `O=C(c1ccc([N+](=O)[O-])cc1)N(Cc1ccc(Cl)cc1)N1C(=O)CCCC1=O`, in that order: > 10 µM (inactive) and 91.5%.
For `CCC(=O)Nc1nc(-c2ccccc2)ns1`, in that order: > 10 µM (inactive) and 115%.
As to `Cc1ccccc1CS(=O)(=O)c1nnc([C@H](Cc2ccccc2)NC(=O)OC(C)(C)C)o1`, the IC50 in assay [1] was > 10 µM (inactive). Besides, the cell count in assay [2] was determined as 114%.
As for `O=C(c1ccco1)N1CCN(C(=O)N2c3ccccc3Sc3ccccc32)CC1`, in assay [1], the pIC50 – broadly, −log10 of the IC50, conventionally taken in molar units – is 5.45. For the same molecule, in assay [2], the cell count amounted to 40.3%.
Take `O=C(COC(=O)c1ccccc1C(=O)c1ccc(Cl)c([N+](=O)[O-])c1)NC1CCCCCC1`: the IC50 in assay [1] was > 10 µM (inactive). This molecule also had a cell count in assay [2] of 91%.
For the molecule `CCOC(=O)Nc1nc(-c2ccccc2)c(C(=O)c2ccccc2)s1`, the IC50 in assay [1] was > 10 µM (inactive). The cell count in assay [2] was determined as 61.6%.
Take `CCN1/C(=C\C=C\C2=[N+](CC)c3ccccc3C2(C)C)C(C)(C)c2ccccc21`: the pIC50 in assay [1] is 6.39. The molecule further registered a cell count in assay [2] of 60.4%.
Turning to `NC(=S)N/N=C\c1ccc(-c2cccc(Cl)c2Cl)o1`, the IC50 in assay [1] was > 10 µM (inactive). The molecule also had a cell count in assay [2] of 106%.
Regarding `COc1ccc(CCNc2nnc(Sc3nnnn3-c3ccccc3)s2)cc1OC`, the pIC50 in assay [1] was 5.79. Besides, in assay [2], the cell count is 27.4%.
`O=C(Nc1ccccc1)c1nnsc1S(=O)c1ccc(Cl)cc1` (stereo unspecified): the IC50 in assay [1] was > 10 µM (inactive). Further, in assay [2], the cell count was 95.6%.
For `COc1ccc(NC(=O)/C(Cl)=C(/Cl)S(=O)Cc2ccccc2)cn1` (stereo unspecified), the pIC50 in assay [1] is 5.98. The same molecule registered a cell count in assay [2] of 34.2%.
For `COc1ccc(C(=O)C(CN2CCCC2)c2ccccc2)cc1` (stereo unspecified), in that order: 5.68 and 73.4%.
For `C#CC(=O)N(c1cccc(OC)c1)C(C(=O)NC1CCCC1)c1cccs1` (stereo unspecified), in that order: 5.75 and 0.98%.
On the same counts, the results for `CC1CC(=O)NN=C1c1ccc(NCCO)c([N+](=O)[O-])c1` (stereo unspecified) are 7.29 and 71.6%.
Turning to `CCOc1ccc(C2=Nn3c(nnc3-c3ccccc3OC)SC2)cc1`, in assay [1], the pIC50 was over 7.00. In addition, in assay [2], the cell count is 32.1%.
Take `CC1=C([N+](=O)[O-])C(c2ccccc2)C2=C(N1)c1ccccc1C2=O` (stereo unspecified): in assay [1], the IC50 was > 10 µM (inactive). This molecule also had a cell count in assay [2] of 111%.
Turning to `O=C(OCn1ncc(Br)c(Br)c1=O)c1ccc(F)cc1`, the negative logarithm of the IC50 (pIC50) in assay [1] was 5.54. In addition, the cell count in assay [2] is 2.02%.
Take `COc1ccc(OC)c(C2C3=C(COC3=O)Nc3cc4c(cc32)OCO4)c1` (stereo unspecified): in assay [1], the IC50 was > 10 µM (inactive). Moreover, the cell count in assay [2] is 112%.
Regarding `COc1cc(C2C(C#N)=C(N)Oc3cc(N(C)C)ccc32)cc2c1OCO2` (stereo unspecified), in assay [1], the pIC50 was 5.29. This molecule registered a cell count in assay [2] of 47.6%.
Turning to `Cc1cc(C)c(S(=O)(=O)Nc2ccc3c4c(cccc24)CC3)c(C)c1`, in assay [1], the IC50 is > 10 µM (inactive). In addition, the cell count in assay [2] was 106%.
Turning to `COc1cc(C2C(C#N)=C(C)NC3=C2C(=O)c2ccccc23)cc(OC)c1OC` (stereo unspecified), the pIC50 in assay [1] is 6.66. The same molecule had a cell count in assay [2] of 32%.
With `Cc1cccc(CS(=O)(=O)c2nnc([C@H](Cc3ccccc3)NC(=O)OC(C)(C)C)o2)c1`, the IC50 in assay [1] was > 10 µM (inactive). The molecule further came in with a cell count in assay [2] of 99.2%.
In the case of `COc1ccc(C2=Nn3c(nnc3-c3ccccc3OC)SC2)cc1OC`, the pIC50 in assay [1] is 6.25. In assay [2], this molecule came in with a cell count of 46.9%.
For `COc1ccc(C(=O)C(CN2CCOCC2)c2ccccc2)cc1` (stereo unspecified), in that order: 5.57 and 73.8%.
Turning to `CCOc1ccccc1C(=O)N1CCN(c2cccc(Cl)c2)CC1`, in assay [1], the pIC50 is 6.64. For the same molecule, the cell count in assay [2] amounted to 15.7%.
On the same counts, the results for `COc1ccc(NC(=O)/C(Cl)=C(/Cl)S(=O)Cc2ccc(C)cc2)cn1` (stereo unspecified) are 5.66 and 55%.
`COC(=O)C[C@]1(C(=O)OC)CN(C#N)N(c2ccc(Cl)cc2)C12c1ccccc1-c1ccccc12`: the IC50 in assay [1] is > 10 µM (inactive). The same molecule returned a cell count in assay [2] of 104%.
On the same counts, the results for `Nc1nnnn1/N=C/C(Br)=C/c1ccccc1` are > 10 µM (inactive) and 106%.
On to `COc1cc(C2C3=C(Nc4ncnn42)c2ccccc2CC3)cc(OC)c1OC` (stereo unspecified), for which, in assay [1], the pIC50 was 5.75. In addition, in assay [2], the cell count stood at 27.6%.
On to `O=Cc1cc2ccccc2nc1SCc1ccc(Cl)cc1`, for which, in assay [1], the IC50 is > 10 µM (inactive). The molecule further showed a cell count in assay [2] of 99.9%.
As for `O=C(OCn1ncc(Br)c(Br)c1=O)c1c(F)cccc1F`, the pIC50 in assay [1] was 5.09. Besides, in assay [2], the cell count came out at 54.9%.
